Broadly, the IC50 is the concentration needed to halve the response being measured. Read a low IC50 as greater potency in that assay. One may read the IC90 as the point of the concentration-response curve where the effect stands at 90%. The half-life is the time in which the quantity being followed falls by half. A word on the inhibition: it is the percentage by which the read-out fell short of the control.

The text below walks through data of publication PMC2833169, “Anti-malarial activity of a non-piperidine library of next-generation quinoline methanols” (Malaria Journal, 2010).

For data set [1], the target named is T1, CYP450 2C19 (Homo sapiens, UniProt P33261).
T1 construct: purchased BD Gentest (Franklin Lakes, NJ)
Description: CYP450 inhibition kit (drug-drug interaction), 2C19. The data set is classed as biochemical. As for the experimental part:
(§1) Low IC50s against specific cytochrome P450 isoforms may indicate the potential for a harmful drug interaction to occur in vivo with substrates of that isoform. A lack of metabolic stability in vitro may indicate potential metabolic instability in vivo, and, therefore, a shorter half-life. Drug interaction potential was evaluated in vitro using BD Gentest (Franklin Lakes, NJ) CYP450 inhibition kits as recommended by the manufacturer. Metabolic stability assessments were conducted using in vitro liver microsomes. […] The reaction is started with the addition of 1 U/mL glucose-6-phosphate dehydrogenase G6PD. The mixture is incubated on a shaking platform at 37°C, and aliquots are taken and quenched with the addition of an equal volume of cold acetonitrile at 0, 10, 20, 30, and 60 min. Samples are centrifuged at 3700 rpm for […] at 20°C to remove debris. Sample quantification is carried out by LC/MS, and metabolic half-life is calculated by log plots of the total ion chromatograph area remaining.

In data set [2] the test system is P. falciparum strain TM91C235. Kind of data set: labeled hypoxanthine susceptibility assay, P. falciparum TM91C235. In kind it is cell-based, Plasmodium falciparum. The settings on record: Plasmodium falciparum. As for the experimental part: (§2) The in vitro activities of quinoline methanols against P. falciparum strains W2, D6, TM91C235, and TM90C2A were evaluated using the traditional labeled hypoxanthine assay of Desjardins et al as modified by Milhous et al. These four P. falciparum strains were selected since they have various levels of resistance to conventional anti-malarials.

A short description of data set [3]: metabolic stability in mouse liver microsomes. In kind it is in vitro ADME. The settings on record: for half-life at 1 μM: pH 7.4, mouse liver microsomes, read-out: Half-life in mouse micro. The method, then:
as §1, with “Interesting compounds were also submitted for drug-drug interaction and metabolic stability assays. Low” for “Low”
For orientation: Liver microsomes are a subcellular fraction often used to study metabolism.

Data set [4] concerns the target T2, CYP450 1A2 (Homo sapiens, UniProt P05177).
T2 construct: purchased BD Gentest (Franklin Lakes, NJ)
T2 sequence (P05177 1-516): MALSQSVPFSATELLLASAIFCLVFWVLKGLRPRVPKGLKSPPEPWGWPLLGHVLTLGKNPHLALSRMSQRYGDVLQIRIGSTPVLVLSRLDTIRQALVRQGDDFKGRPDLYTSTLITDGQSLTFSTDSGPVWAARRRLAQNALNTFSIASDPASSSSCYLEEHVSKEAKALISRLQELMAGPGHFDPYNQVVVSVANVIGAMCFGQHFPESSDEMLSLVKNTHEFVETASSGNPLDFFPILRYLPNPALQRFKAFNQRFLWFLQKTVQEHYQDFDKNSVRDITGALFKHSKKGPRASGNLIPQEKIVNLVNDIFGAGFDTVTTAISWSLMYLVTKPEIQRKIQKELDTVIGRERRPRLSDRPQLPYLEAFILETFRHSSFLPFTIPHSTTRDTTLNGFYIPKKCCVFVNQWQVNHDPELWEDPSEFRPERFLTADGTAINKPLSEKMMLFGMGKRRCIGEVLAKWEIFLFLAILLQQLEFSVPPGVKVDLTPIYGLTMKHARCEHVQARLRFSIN
Description: CYP450 inhibition kit (drug-drug interaction), 1A2. The data set is classed as biochemical. The method, then: as §1

Data set [5] concerns the target T3, CYP450 2C9 (Homo sapiens, UniProt P11712).
T3 construct: purchased BD Gentest (Franklin Lakes, NJ)
Description: CYP450 inhibition kit (drug-drug interaction), 2C9. The data set is classed as biochemical. As for the experimental part: as §1

Data set [6] relates to P. falciparum strain TM90C2A. Kind of data set: labeled hypoxanthine susceptibility assay, P. falciparum TM90C2A. In kind it is cell-based, Plasmodium falciparum. The settings on record: for IC90: Plasmodium falciparum, TM90C2A; for CSI (C2A/W2): ratio of IC90 C2A to IC90 W2. The method, then: as §2
The nature of data set [7]: in vitro. The settings on record: mouse. As for the experimental part:
(§3) General cytotoxicity was assessed by first determining LC50 's against a rodent macrophage (RAW) cell line using the 3-(4,5-dimethylthiazole-2-yl)-2,5-diphenyltetrazolium bromide (MTT) assay as described in one of our earlier studies. This screen was conducted to identify compounds that may require de-selection due to generalized toxicity. […] In vitro neurocytotoxicity was assessed by determining LC50s against primary mouse neurons using the MTT assay as described previously. Inhibition of the A2A and A1 receptors was determined at 200 nM in duplicate by Caliper Biosciences (Hanover, Maryland).

In data set [8] the target is T4, CYP450 3A4 (Homo sapiens, UniProt P08684).
T4 construct: purchased BD Gentest (Franklin Lakes, NJ)
Kind of data set: CYP450 inhibition kit (drug-drug interaction), 3A4. In kind it is biochemical. The method, then: as §1

Data set [9] deals with T5, A2A receptor (Homo sapiens, UniProt P29274).
T5 construct: Caliper Biosciences (contract screen)
Kind of data set: inhibition of the A2A receptor at 200 nM. The data set is classed as binding. The settings on record: 200 nM, duplicate; read-out: % A2A inhibition at 200 nM. As for the experimental part: as §3

Setting [10] is: read-out: Pf C2A IC90 nM values calculated using MW in Column C.

≈ marks a conversion by molar mass, not a printed value. Read-outs that look alike come from different tables or passages of the source. Some results are limits rather than exact numbers.

T4 sequence (P08684 whole entry): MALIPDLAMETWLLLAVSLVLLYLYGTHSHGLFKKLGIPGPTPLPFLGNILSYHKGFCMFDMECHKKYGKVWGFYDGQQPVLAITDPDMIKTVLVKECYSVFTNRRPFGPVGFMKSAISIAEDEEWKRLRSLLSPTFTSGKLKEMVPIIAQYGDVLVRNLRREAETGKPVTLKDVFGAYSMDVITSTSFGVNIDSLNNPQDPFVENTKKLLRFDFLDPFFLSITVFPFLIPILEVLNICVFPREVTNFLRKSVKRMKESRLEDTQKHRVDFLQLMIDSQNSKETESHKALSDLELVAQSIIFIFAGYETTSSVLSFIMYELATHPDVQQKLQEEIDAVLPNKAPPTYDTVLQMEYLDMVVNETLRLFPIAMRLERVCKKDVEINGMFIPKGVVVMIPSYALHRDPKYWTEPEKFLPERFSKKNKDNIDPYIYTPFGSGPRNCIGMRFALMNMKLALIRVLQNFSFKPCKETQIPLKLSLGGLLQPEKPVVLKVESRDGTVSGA
T5 sequence (P29274 whole entry): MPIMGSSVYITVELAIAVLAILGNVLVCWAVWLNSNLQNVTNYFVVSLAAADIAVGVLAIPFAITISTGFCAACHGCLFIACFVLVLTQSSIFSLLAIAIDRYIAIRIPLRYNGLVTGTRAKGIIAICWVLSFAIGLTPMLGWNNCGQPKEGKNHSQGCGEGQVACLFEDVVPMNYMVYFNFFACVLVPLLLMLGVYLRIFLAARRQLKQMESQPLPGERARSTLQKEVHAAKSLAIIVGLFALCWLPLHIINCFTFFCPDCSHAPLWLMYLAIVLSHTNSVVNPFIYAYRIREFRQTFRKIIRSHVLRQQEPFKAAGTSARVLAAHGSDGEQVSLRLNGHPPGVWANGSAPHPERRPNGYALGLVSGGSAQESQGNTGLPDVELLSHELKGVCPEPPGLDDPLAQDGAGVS
T3 sequence (P11712 whole entry): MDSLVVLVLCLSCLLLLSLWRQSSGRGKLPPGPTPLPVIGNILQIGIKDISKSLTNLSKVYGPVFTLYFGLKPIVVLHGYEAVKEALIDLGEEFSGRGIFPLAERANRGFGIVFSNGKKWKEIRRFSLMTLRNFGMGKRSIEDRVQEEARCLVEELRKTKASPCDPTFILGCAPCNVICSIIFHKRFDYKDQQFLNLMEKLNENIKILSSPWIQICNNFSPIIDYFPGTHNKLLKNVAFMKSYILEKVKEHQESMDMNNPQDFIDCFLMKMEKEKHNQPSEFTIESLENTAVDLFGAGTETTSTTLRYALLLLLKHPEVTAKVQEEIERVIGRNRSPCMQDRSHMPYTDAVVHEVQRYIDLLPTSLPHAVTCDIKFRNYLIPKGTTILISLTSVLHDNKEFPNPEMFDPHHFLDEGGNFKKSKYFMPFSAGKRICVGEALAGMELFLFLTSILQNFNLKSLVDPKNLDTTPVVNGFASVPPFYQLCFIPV
T1 sequence (P33261 whole entry): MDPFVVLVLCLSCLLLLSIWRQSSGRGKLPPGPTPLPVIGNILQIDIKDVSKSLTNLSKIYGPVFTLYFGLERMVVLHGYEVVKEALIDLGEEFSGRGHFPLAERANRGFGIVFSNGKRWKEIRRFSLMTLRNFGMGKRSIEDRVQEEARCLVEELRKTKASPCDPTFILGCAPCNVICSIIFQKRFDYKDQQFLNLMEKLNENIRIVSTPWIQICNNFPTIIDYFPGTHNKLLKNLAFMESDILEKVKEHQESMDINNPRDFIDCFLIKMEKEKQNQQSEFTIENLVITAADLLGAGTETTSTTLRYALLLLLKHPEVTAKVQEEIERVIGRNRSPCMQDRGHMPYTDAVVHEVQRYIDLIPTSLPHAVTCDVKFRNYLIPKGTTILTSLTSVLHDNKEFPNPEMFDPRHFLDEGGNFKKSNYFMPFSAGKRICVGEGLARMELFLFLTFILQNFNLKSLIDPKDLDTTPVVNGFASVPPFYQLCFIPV

Turning to `CNCC(O)c1cc(C(F)(F)F)nc2c(C(F)(F)F)cccc12` (stereo not drawn) [WR308245], the IC50 is 33 µM in [1], 1.8 µM in data set [4], more than 40 µM in [5] and 26 µM in data set [8]. The IC90 in data set [2] (read-out: IC90 Pf C235) was 0.058 µg/mL (≈ 0.171 µM); in data set [2] (read-out: PF C235 IC90), 0.0576 µg/mL (≈ 0.17 µM); in [6] (read-out: IC90 Pf C2A) it was 0.08 µg/mL; in [6] (read-out: IC90 PfC2A), 236 nM; in [6] (read-out: PF C2A IC90) it was 0.0798 µg/mL; in [6] (setting [10]), 236 nM. The half-life at 1 μM in data set [3] was more than 1 h. In addition, in data set [6], the “CSI (C2A/W2)” value is recorded as 4.8. This compound also gave a CC50 in [7] of more than 120 µM. For the same compound, the inhibition at 0.2 µM in data set [9] is 0%.
For `CC(C)NCC(O)c1cc(C(F)(F)F)nc2c(C(F)(F)F)cccc12` (stereo not drawn) [WR308257], the concentration for half-maximal inhibition (IC50) in data set [1] was 26 µM; in [4], 3.9 µM; in data set [5], 37 µM; in [8] it was more than 40 µM. Also, the 90% effect concentration (IC90) in [2] (read-out: IC90 Pf C235) is 0.023 µg/mL (≈ 0.0628 µM); in [2] (read-out: PF C235 IC90) it was 0.0234 µg/mL (≈ 0.0638 µM); in data set [6] (read-out: IC90 Pf C2A), 0.039 µg/mL; in data set [6] (read-out: IC90 PfC2A) it was 107 nM; in data set [6] (read-out: PF C2A IC90) it was 0.0392 µg/mL; in [6] (setting [10]), 107 nM. Further, the half-life at 1 μM in data set [3] is more than 1 h. The “CSI (C2A/W2)” value in data set [6] came out at 8.4. In data set [7], the CC50 is more than 120 µM. For the same compound, the inhibition at 0.2 µM in data set [9] was found to be 17%.
Turning to `CSCCCNCC(O)c1cc(C(F)(F)F)nc2c(C(F)(F)F)cccc12` (stereo not drawn) [WR308278], the half-maximal inhibitory concentration (IC50) is 3.6 µM in data set [1], 3.5 µM in [4], 6.3 µM in [5] and 16 µM in data set [8]. In addition, the IC90 is 0.039 µg/mL (≈ 0.0946 µM) in data set [2] (read-out: IC90 Pf C235); 0.0393 µg/mL (≈ 0.0953 µM) in data set [2] (read-out: PF C235 IC90); 0.054 µg/mL in [6] (read-out: IC90 Pf C2A); 132 nM in [6] (read-out: IC90 PfC2A); 0.0544 µg/mL in data set [6] (read-out: PF C2A IC90); 132 nM in data set [6] (setting [10]). For the same compound, the half-life at 1 μM in data set [3] came to 0.167 h. Besides, the “CSI (C2A/W2)” value in data set [6] worked out at 5.6. The same compound registered a CC50 in data set [7] of more than 120 µM. The inhibition at 0.2 µM in [9] was 1%.
For `OC(CNCCNCc1ccccc1)c1cc(C(F)(F)F)nc2c(C(F)(F)F)cccc12` (stereo not drawn) [WR308396], the IC50 stood at 5.8 µM in data set [1], 5.4 µM in data set [4], 14 µM in [5] and 3.3 µM in [8]. Also, the IC90 in [2] (read-out: IC90 Pf C235) was 0.04 µg/mL (≈ 0.0874 µM); in [2] (read-out: PF C235 IC90), 0.0401 µg/mL (≈ 0.0877 µM); in data set [6] (read-out: IC90 Pf C2A), 0.048 µg/mL; in data set [6] (read-out: IC90 PfC2A) it was 105 nM; in data set [6] (read-out: PF C2A IC90), 0.048 µg/mL; in [6] (setting [10]), 105 nM. Also, the “HL in Microsomes” value in data set [3] (Figure 3, species of microsomes not given) was more than 60 min. In addition, the half-life at 1 μM in [3] was more than 1 h. For the same compound, the “CSI (C2A/W2)” value in [6] turned out to be 7.7. For the same compound, the CC50 in data set [7] amounted to 52 µM. In data set [9], the inhibition at 0.2 µM is 0%.
